The NIST ThermoML archive (doi:10.1016/j.tca.2016.05.007)
± gives the expanded uncertainty stated by the source.

Assays:
[1] = Molar enthalpy of transition or fusion; conditions: Crystal; DSC

Molar enthalpy of transition or fusion [1]: 6.67 ± 0.143 kcal/mol | Normal melting temperature (Crystal, DTA): 110.1 ± 0.4 °C | Glass transition temperature (Glass, Adiabatic calorimetry): 41.2 ± 0.1 °C
SMILES: COc1ccc(C2(c3ccc(OC)c(C)c3)OC(=O)c3ccccc32)cc1C [3,3-bis(4-methoxy-3-methylphenyl)-1(3H)-isobenzofuranone]
